Read-outs that look alike come from different tables or passages of the source.
Experiments:
[1] = In vivo pharmacokinetic study of BUS with or without WGM in rats; settings: rat, plasma, po, 30 mg/kg; for AUC(0-inf) / Cmax / half-life: mean ± SD, n = 6
Method: The blood was immediately centrifuged at 3000× g for 10 min at 4 °C to obtain the plasma, which was pretreated and analyzed using the UPLC-MS/MS method.
(§1) The average plasma pharmacokinetic parameters, including the area under the curve from time 0 extrapolated to infinity (AUCinf) and the terminal half-life (t1/2), were determined using a non-compartment model (WinNonlin Ver. 3.1; Certara, Inc., Princeton, NJ, USA). The peak time (Tmax) and maximal concentration (Cmax) were obtained directly from the observed plasma concentration-time profiles. A t-test was used to compare two unpaired means, and a p-value of below 0.05 was considered statistically significant.

[2] = Stability of marker components in WGM sample and reference stock solutions (HPLC-PDA peak area); assay type: physicochemical; settings: for Peak Area (%) 6 h / Peak Area (%) 24 h / Peak Area (%) 48 h / Peak Area (%) 72 h: vs 0 h, n = 5; for Increase of peak area / Decrease of peak area: Reference solution
Excerpt: The developed HPLC-PDA simultaneous analysis conditions were validated according to ICH Q2(R1) guidelines. The validation characteristics included specificity, linearity, detection limit, quantitation limit, precision, recovery, and stability. Specificity is defined as the ability to clearly identify an analyte in a sample containing a mixture of impurities. This was verified by comparing and overlaying the chromatograms and PDA spectra obtained from the WGM samples and the reference mixture to confirm that the retention time (tR), spectral pattern, and maximum absorption wavelength (λmax) of the three reference compounds were consistent. Linearity is a test used to derive calibration curves by obtaining measurements that are directly proportional to the concentration of the substance being examined within a certain range. The stock solutions of 7-methoxyluteolin-5-O-glucoside (1), pilloin 5-O-β-D-glucopyranoside (2), and rutarensin (3) were diluted to six target concentrations (5.0, 50.0, 250.0, 400.0, 500.0, and 600.0 μg/mL) in DMSO/MeOH (50:50, v/v) mixtures, and six replicates (n = 6) were performed for each working solution. The calibration curve was expressed using a linear equation (y = ax + b) through linear regression analysis as a function of the area (y) vs. the concentration (x) of each reference peak, and the slope (a), y-intercept (b), and correlation coefficient (r^2) were calculated. The correlation coefficients for the acceptance criteria exceeded 0.999. The detection limit (DL) and quantitation limit (QL) are the minimum detection and quantitation limits of the analyte in the sample, respectively, that can be reliably quantified. These values were measured using the standard deviation (SD) of the y-intercept (σ) and the slope of the calibration curve (S) derived based on the linearity evaluation and were calculated as follows: DL = 3.3 σ/S and QL = 10 σ/S. Precision is an analytical procedure used to evaluate repeatability and reproducibility. The repeatability of the experiment was assessed by measuring the intra- and inter-day precision. Three reference compounds were repeated five times (n = 5) at low, medium and high concentration levels (10.0, 100.0, and 300.0 µg/mL). Intra-day precision was injected on the same day, while inter-day precision was injected on days 1, 3, and 5. The results were determined using the relative standard deviation (RSD) of the peak area. The %RSD was calculated as follows: RSD (%) = (standard deviation/mean measured amount) × 100. %RSD value of <2% means that the developed HPLC-PDA method is precise and reproducible enough for simultaneous analysis and evaluation of the three compounds. […] The analysis was repeated three times (n = 3), and the measured values were calculated as follows: % recovery = (found concentration-original concentration)/spiked concentration × 100. Stability was used to evaluate the degree of change in the solution concentration with storage conditions and time. […] The stability results were evaluated as the %peak area change and %RSD between the mean peak area of the control group (0 h) and that of the experimental group (6, 24, 48, and 72 h).

[3] = system: CYP3A; assay: Inhibition of CYP3A-mediated metabolism (disappearance) of buspirone in rat liver S9 fraction; assay type: in vitro ADME; settings: 1 μM BUS; for IC50 at 30 min: probe buspirone (BUS), rat liver S9 fraction 1 mg/mL, n = 5
Method: CYP isoforms-specific probe substrates were BUS for CYP3A, DIC for CYP2C, and DEX for CYP2D [34, 35, 37]. Dose–response curves assessed metabolic inhibition of BUS in the presence of 1 μM BUS and 10 different concentrations (0, 0.1, 0.5, 1, 2, 5, 10, 20, 50, and 100 μM) of 7-methoxyluteolin-5-O-glucoside, pilloin 5-O-β-D-glucopyranoside or rutarensin. The mixture without substrate and inhibitor was incubated for 5 min at 37 °C, after which the substrate and inhibitor were added to initiate the enzyme reaction. After incubating BUS (reaction time: 30 min), DIC and DEX (reaction time: 60 min) at 37 °C at a speed of 500 oscillations/min, a sample was obtained from the reaction mixture and mixed with cold acetonitrile containing an internal standard (IS) to terminate the reaction. After sample preparation, the samples were analyzed using the ultra-performance liquid chromatography–tandem mass spectrometry (UPLC-MS/MS) method (see the sections entitled ‘Biological Sample Preparation’ and ‘UPLC-MS/MS Conditions’ in the Supplementary Materials).
as §1

[4] = BUS 30 mg/kg oral co-administered with 1 g/kg WGM
[5] = Reference solution (DMSO/MeOH 50:50), 4 °C
[6] = Reference solution (DMSO/MeOH 50:50), R.T.

Row | Peak Area (%) 6 h [2, 5] | Peak Area (%) 24 h [2, 5] | Peak Area (%) 48 h [2, 5] | Peak Area (%) 72 h [2, 5] | Peak Area (%) 6 h [2, 6] | Peak Area (%) 24 h [2, 6] | Peak Area (%) 48 h [2, 6] | Peak Area (%) 72 h [2, 6] | Peak Area (%) 6 h ([2]; WGM solution, 4 °C) | Peak Area (%) 24 h ([2]; WGM solution, 4 °C) | Peak Area (%) 48 h ([2]; WGM solution, 4 °C) | Peak Area (%) 72 h ([2]; WGM solution, 4 °C) | Peak Area (%) 6 h ([2]; WGM solution, R.T.) | Peak Area (%) 24 h ([2]; WGM solution, R.T.) | Peak Area (%) 48 h ([2]; WGM solution, R.T.) | Peak Area (%) 72 h ([2]; WGM solution, R.T.) | IC50 at 30 min [3] | Decrease of peak area ([2]; room temperature, after 6 h) | Structure (SMILES) | further results
1 | – | – | – | – | – | – | – | – | – | – | – | – | – | – | – | – | – | – | O=C1CC2(CCCC2)CC(=O)N1CCCCN1CCN(c2ncccn2)CC1 [BUS, Buspirone] | Tmax ([1]; 30 mg/kg oral, with or without WGM, read-out: Tmax of BUS): 5 to 15 min; AUC(0-inf) [1, 4]: 1980 ng·h/mL; Cmax [1, 4]: 2020 ± 619 ng/mL; half-life [1, 4]: 103 ± 27 min; Tmax ([1]; BUS 30 mg/kg oral co-administered with 1 g/kg WGM, n = 6, read-out: Tmax (converted)): 5 min; AUC(0-inf) ([1]; BUS alone, 30 mg/kg oral): 1640 ng·h/mL; Cmax ([1]; BUS alone, 30 mg/kg oral): 1630 ± 762 ng/mL; half-life ([1]; BUS alone, 30 mg/kg oral): 111 ± 23 min; Tmax ([1]; BUS alone, 30 mg/kg oral, n = 6, read-out: Tmax (converted)): 10 min
2 | 99.29% | 102.15% | 104.42% | 101.79% | 101.71% | 103.18% | 107.58% | 103.48% | 100.32% | 99.18% | 98.86% | 102.02% | 101.41% | 101.08% | 98.97% | 103.35% | 18.7 µM | – | COc1cc(O[C@@H]2O[C@H](CO)[C@@H](O)[C@H](O)[C@H]2O)c2c(=O)cc(-c3ccc(OC)c(O)c3)oc2c1 [Compound 2, pilloin 5-O-β-D-glucopyranoside] | Increase of peak area ([2]; 4 °C, after 48 h): 4.42%; Increase of peak area ([2]; R.T., after 48 h): 7.58%; Increase of peak area ([2]; room temperature, after 6 h): 1.71%
3 | 98.02% | 99.40% | 98.78% | 101.22% | 96.77% | 98.82% | 98.54% | 98.72% | 100.19% | 99.30% | 98.91% | 102.15% | 101.30% | 101.14% | 98.98% | 103.56% | – | 3.23% | COc1cc2cc(Oc3ccc4ccc(=O)oc4c3)c(=O)oc2cc1O[C@@H]1O[C@H](COC(=O)CC(C)(O)CC(=O)O)[C@@H](O)[C@H](O)[C@H]1O (some centres unmarked) [Compound 3, rutarensin] | Inhibition of BUS metabolism (dose-response) ([3]; rat liver S9 fraction, 0-100 μM marker compound): did not inhibit
4 | 99.15% | 96.60% | 96.58% | 97.39% | 99.46% | 98.56% | 100.34% | 99.03% | 100.10% | 98.87% | 98.63% | 101.60% | 100.80% | 100.10% | 97.43% | 100.99% | 2.73 µM | 0.54% | COc1cc(O[C@@H]2O[C@H](CO)[C@@H](O)[C@H](O)[C@H]2O)c2c(=O)cc(-c3ccc(O)c(O)c3)oc2c1 [Compound 1, 7-methoxyluteolin-5-O-glucoside] | –

— PMC10534693, “A High-Performance Liquid Chromatography with Photodiode Array Detection Method for Simultaneous Determination of Three Compounds Isolated from Wikstroemia ganpi: Assessment of the Effects on Cytochrome P450-Mediated Metabolism In Vitro and In Vivo” (Nutrients, 2023)
